Measured values: patent US20230257716A1 (priority 2020, published 2023)
Entries after “also recorded” stand apart in the source; their conditions may differ.

Assays:
[1] = test system: TNFRSF12A^hi basal cells; details: basal organoids from FACS-purified TNFRSF12A^hi EPCAM+ITGA6+ITGB4+ cells, 14 days culture
Description: NOTCH manipulation in TNFRSF12A^hi basal cells. TNFRSF12A^hi basal cells were isolated and cultured as above. 24 hours after plating, media was changed to lung organoid media with either vehicle (0.1% DMSO), 1 μg/ml JAG1 peptide (Anaspec), 500 nM soluble recombinant NOTCH receptor inhibitor Delta Like Ligand 4 mutant (DLL4E12), or 1 μM gamma secretase inhibitor DBZ (Tocris). After 14 days of culture, biochemical estimation of proliferation was carried out by resazurin reduction assay (Alamar Blue, Thermo Fisher) for 16 hours according to manufacturer's protocol and resazurin reduction was measured via fluorescence readout on a Biotek Synergy H1 plate reader according to the manufacturer's protocol. Reference blank consisted of Alamar Blue reagent incubated in parallel media without cells.

[2] = test system: TNFRSF12A^hi basal cells; details: NOTCH inhibition
Description: Quantitation of SCGB1A1 and SFTPC mRNA expression in TNFRSF12A^hi basal cells. FACS-isolated basal cells cultured in the above conditions were fixed in 2% paraformaldehyde in PBS for one hour at room temperature, embedded in HistoGel (Thermo Fisher HG-4000-012), dehydrated and paraffin embedded en bloc. One hundred serial sections were obtained at 10 micron thickness, and immunocytochemistry and in situ hybridization were performed at each 100 micron level. Confocal images were acquired in a blinded manner and organoids were defined as a cluster of 3 or greater DAPI nuclei. Channels were acquired using identical parameters for DAPI, Alexa 488 (SFTPC RNA in situ hybridization), Texas Red (SCGB1A1 RNA in situ hybridization), and Alexa 647 (KRTS immunostaining). Z-stacks were collected and images were processed in ImageJ and maximum intensity Z projections were used to quantitate SCGB1A1 and SFTPC RNA in situ in Cell Profiler using the RNA Proximity Ligase Assay counting pipeline.

[3] = test system: PR8 strain of H1N1 modified to express GFP; test: microbe, parasite or virus in culture; format: cell-based, influenza H1N1 (in human distal lung organoids)
[4] = test system: AT2 organoids; test: AT2 organoid proliferation with niche factors and PORCUPINE inhibitor
Description: Screening exogenous growth factors in organoid culture. Distal airway cells were isolated and plated as above with the following exceptions: ADMEM/F12 was used instead of organoid medium during elastase digestion of lung tissue, cells were serially diluted and filtered through a 40 micron cell strainer and counted with a hemocytometer. 1000 viable epithelial cells (by Trypan blue exclusion, size, and morphology) per μL ECM were plated per 5 μL Matrigel droplet per well. Base media consisted of organoid media lacking A83-01, EGF, NOGGIN, WNT3A or RSPO1. EGF (final 50 ng/ml, R&D), NOGGIN (final 100 ng/ml, R&D), WNT3A (final 100 ng/ml, R&D), RSPO1 (final 500 ng/ml, Peprotech) or the PORCUPINE inhibitor C59 (final 1μM, Biogems) were added singly or in combination to base media. Images were obtained ten days after primary plating with an inverted light microscope at 5X magnification. Each condition was plated in quadruplicate and organoid formation was quantified using the analyze particle (threshold=4902 pixels) plugin in ImageJ as previously described.

[5] = test system: basal organoids; test: Growth factor evaluation for basal organoids after sedimentation and clonogenic culture; format: cell-based, human; parameters: basal organoid growth: dose or concentration left out as unconfirmed
Description: (§1) Screening exogenous growth factors in organoid culture.
Density sedimentation of basal cells. Organoid cultures within 2-3 weeks of primary plating were dissociated with 1 U/ml neutral protease (Worthington, Cat LS02100) and 100 KU of DNase I in organoid media. Basal organoids were then collected by gravity sedimentation and the supernatant was either aspirated or collected for downstream use. Basal organoids were then further fractionated on a custom Ficoll-Paque gradient (4 vol Ficoll-Paque to 1 vol PBS) and centrifuged at 300×g for 10 minutes at room temperature. The supernatant was aspirated and the organoid pellet was resuspended in 10 ml PBS in a 15 ml conical tube, collected by gravity sedimentation, and plated into ECM as described above.

[6] = test system: human distal lung organoids; test: Screening exogenous growth factors in distal lung organoid culture; format: cell-based; details: single cell suspensions of distal lung, feeder-free; EGF and NOGGIN in combination
Description: as §1

C[C@H](NC(=O)Cc1cc(F)cc(F)c1)C(=O)N[C@@H]1C(=O)N(C)c2ccccc2-c2ccccc21 [DBZ]
proliferation (resazurin dye reduction) [1]: significantly increased proliferation | SFTPC mRNA expression [2]: upregulating SFTPC mRNA

CC(=O)N[C@H]1[C@H]([C@H](O)[C@H](O)CO)OC(C(=O)O)=C[C@@H]1N=C(N)N [zanamivir]
IC50 on influenza infectivity and replication (dose response curve) [3]: did not exhibit a dose response curve | inhibition of H1N1 viral infection or replication (GFP attenuation) [3]: did not inhibit H1N1 viral infection or replication

Nc1ccn([C@@H]2O[C@H](CO)[C@@H](O)[C@H]2F)c(=O)n1 [FdC, 2′-deoxy-2′-fluorocytidine]
inhibition of H1N1 viral infection or replication (GFP attenuation) [3]: efficacious with EC50 consistent with previous reports | IC50 ([3]; Influenza A virus, read-out: IC50 on influenza infectivity and replication (dose response curve)): 340 nM

Cc1cc(-c2ccc(CC(=O)Nc3ccc(-c4cccnc4)cc3)cc2)ccn1 [C59, reference compound]
AT2 organoid growth ([4]; PORCUPINE inhibitor C59 (1 μM)): attenuated AT2 organoid growth | basal organoid growth ([5]; after d14 sedimentation, clonogenic culture, C59): growth was not significantly inhibited; also recorded: Growth was not affected

EGF: recombinant human EGF (R&D Systems)
clonal AT2 organoid proliferation with exogenous growth factors ([4]; EGF and NOGGIN together, WNT-3A and RSPONDIN-1 added exogenously): sufficient for clonal AT2 organoid proliferation | distal lung organoid growth with exogenous growth factors [6]: optimal | basal organoid growth with exogenous growth factors ([5]; pure basal cell cultures, EGF and Noggin together): sufficient for maximal growth
